Values of other authors as cited in US6414139B1, “Silicon amphiphilic compounds and the use thereof” (Imarx Therapeutics, Inc., priority 1996, dated 2002).

Conditions: gel state to liquid crystalline state; CRC Handbook of Lipid Bilayers p. 139

In the case of `CCCCCCCCCCCCCCCCCCCCCCC(=O)OC[C@H](COP(=O)([O-])OCC[N+](C)(C)C)OC(=O)CCCCCCCCCCCCCCCCCCCCCC` [1,2-(23:0)], the “Main Phase Transition Temperature” value is given as 79.5 °C.

In the case of `CCCCCCCCCCCCCCCCCCCCCCCC(=O)OC[C@H](COP(=O)([O-])OCC[N+](C)(C)C)OC(=O)CCCCCCCCCCCCCCCCCCCCCCC` [1,2-(24:0)], the “Main Phase Transition Temperature” value is given as 80.1 °C.
